{"source": "patent US4902791A", "about": "“Nitrosourea derivatives, process for their preparation and medicaments containing them” (Sanofi S.A., priority 1983, dated 1990)", "key": {"[1]": {"conditions": "MONTERO et al; cited from earlier work"}, "[2]": {"tested_on": "L 1210 leucemia", "conditions": "IMBACH et al; cited from earlier work"}, "[3]": {"tested_on": "L 1210 cells", "experiment": "cytotoxic index after 1 h contact, potential \"in vivo\" activity (TEST N° 2)", "format": "cell-based, mouse", "procedure": "(§1) The test used is that of W. J. Durkin et al. Cancer Research 1979, 39, 402-407, modified.\n(§2) All the nitrosoureas were dissolved in 70% ethanol in the proportion of 10 mg/ml.\n2--Determination of the potential \"in vivo\" activity\nL 1210 cells, under conditions similar to the preceding protocol, were contacted for 1 hour with a dose of the various products tested corresponding to a cytotoxic index equal to 20%. After this time, the cells were placed in culture medium not containing nitrosoureas and incubated at 37° C. After 48 hours, the cytotoxic index was determined."}, "[4]": {"tested_on": "Tumor LEWIS 3LL", "experiment": "\"in vivo\" activity on Lewis tumor, 20 mg/kg i.p. days 1, 5, 9", "set-up": "species or system mouse", "procedure": "Procedure was under the conditions which have just been described previously with regard to melanoma B16, by injecting the tumor cells, in the proportion of 2×10^6 per mouse, in the volume of 0.2 ml.\n(§3) The protocol was identical for the 3 tumors and the 5 compounds of the invention to be tested.\n(§4) As regards the experimental series to be treated, each mouse received, at days 1, 5 and 9, intraperitoneally, a dose of 20 mg/kg of the compound to be tested, in the volume of 0.2 ml of neutralized and sterilized olive oil.\n(§5) As regards the control series, each mouse received, intraperitoneally, 0.2 ml of neutralized and sterilized olive oil.\n(§6) The results are expressed by the relative increase in survival (T/C×100) calculated from the average survival of the treated animals (T) and that of the control animals (C)\n(§7) The mice surviving more than 60 days were considered as cured.\n(§8) The figures between parentheses indicate the percentage of cured mice."}, "[5]": {"tested_on": "leucemia L1210", "experiment": "effective \"in vivo\" activity in the mouse, leucemia L1210, compound 2, i.p. days 1, 5, 9", "procedure": "The experimentation which is reported below used the compound 2 prepared according to the above example 6 (Ref. IC 81 1183).\nThe mice (female, average weight 20 g) used were F1 /DBA2 /C57 /B1 (Animal selection and breeding center of the Laboratories of the CNRS, Orleans, La Source).\nThe mice distributed in cages by drawing lots were inoculated on day \"0\" with 10^5 leucemia L1210 cells.\nThe animals were treated with the compound IC 81 1183 intraperitoneally on days 1, 5 and 9.\nThe suspensions were prepared just before the injection: product 2+neutralized and sterilized olive oil.\nThe mortality of the animals was observed regularly, the relative increase in the survival (T/C×100) was calculated from the average survival of the treated animals (T) and that of the control animals (C)."}, "[6]": {"tested_on": "L 1210 USA Tumor", "experiment": "\"in vivo\" activity on L1210 U.S.A. tumor, 5 mg/kg i.p. days 1, 5, 9", "set-up": "species or system mouse", "procedure": "The tumor L1210 U.S.A. is more resistant than tumor L1210 IGR.\n(§9) The experiments were identical to those described in preceding paragraph 4 but lower doses were used.\nThere were inoculated into the mice, 10^5 tumor cells of L1210 U.S.A. intraperitoneally in a volume of 0.2 ml.\nAt days 1, 5 and 9, the compounds of the invention under test were injected intraperitoneally, at a lower dose than that used in the experiment described at 4, that is to say in the proportion of 5 mg/kg."}, "[7]": {"tested_on": "L 1210 IGR TUMOR", "experiment": "\"in vivo\" activity on L1210 IGR tumor, 5 mg/kg i.p. days 1, 5, 9", "set-up": "species or system mouse", "procedure": "as §9\nThe same protocol was carried out with the tumor L1210 IGR, by inoculating 10^5 tumor cells of L1210 IGR intraperitoneally in the volume of 0.2 ml then, at days 1, 5 and 9, there were injected intraperitoneally 5 mg/kg of each of the compounds to be tested."}, "[8]": {"tested_on": "L 1210 cell", "experiment": "20% cytotoxic index, trypan blue exclusion, 24 h (TEST N° 1)", "format": "cell-based, mouse", "conditions": "Mus musculus, read-out: DOSE COR[…] A 20% CYTOTOXIC INDEX; L1210 cells, 24 hours at 37° C.; read-out: DOSE CORRESPONDING TO A 20% CYTOTOXIC INDEX", "procedure": "as §1, §2\n1--Determination of the 20% cytotoxic index\n100 μl of an L 1210 cell suspension (10^6 cells per ml) in R P M I 1640 culture medium supplemented with 10% of fetal calf serum and 40 μg/ml of gentamycin, containint various doses of the products to be tested (0 to 100 μg/ml) were incubated 24 hours at 37° C. At the end of this time, the cell viability is determined by the trypan blue exclusion test. The cytotoxic index is defined by the formula: [formula]\nThe amount of ethanol is the same in the cultures containing the products to be tested and in the control cultures (this amount has no effect either on growth nor on cell viability).\nFor each product the dose which gives a cytotoxic index of 20% is determined."}, "[9]": {"tested_on": "melanoma B16", "experiment": "\"in vivo\" activity on melanoma B16, 20 mg/kg i.p. days 1, 5, 9", "set-up": "species or system mouse", "procedure": "Female C57 B 1/6 mice were used, about 8 weeks old and weighing about 20 g, from the IFFA-CREDO center.\nAt day \"0\", each mouse received intraperitoneally an inoculum of 2×10^6 tumor cells in a volume of 0.5 ml.\nAfter tumoral graft, distribution at random was carried out as indicated above, to obtain a control series of 8 cages and 5 experimental series of 4 cages each, and of which the mice were intended to be treated by the compounds of the invention.\nas §3, §4, §5, §6, §7, §8"}, "[10]": {"tested_on": "leucemia L 1210 IGR", "experiment": "\"in vivo\" activity on leucemia L1210 IGR, 20 mg/kg i.p. days 1, 5, 9", "set-up": "species or system mouse", "procedure": "Female DBA2 mice were used, about 8 weeks old and weighing about 20 g from the IFFA-CREDO center (les Oncins, 69210 Arbresles)\nAt day \"0\", each mouse received intraperitoneally an inoculum of […] in a volume of 0.2 ml.\nAfter tumoral graft, the mice were distributed at random into 21 cages of 5 animals, themselves then distributed, by drawing lots, into 6 experimental series. Within these 6 experimental series, there were constituted a control series of 6 cages and 5 experimental series of 3 cages each, and of which the mice were intended to be treated by the compounds of the invention.\nas §3, §4, §5, §6, §7, §8"}, "[11]": {"conditions": "compared with literature curves"}}}
{"compound": "O=NN(CCCl)C(=O)N[C@@H]1O[C@H](CO)[C@@H](O)[C@H](O)[C@H]1O", "note": "[1-[3-(2-chloro-ethyl) 3-nitroso-ureido]-1-beta-D-glucopyranose]", "values": [{"measurement": "toxicity on the bone marrow", "setting": "[1]", "value": "lower toxicity on the bone marrow"}]}
{"compound": "CC(=O)OC[C@H]1O[C@@H](NC(=O)N(CCCl)N=O)[C@H](OC(C)=O)[C@@H](OC(C)=O)[C@@H]1OC(C)=O", "note": "[2,3,4,6-tetra-O-acetyl 1-[3-(2-chlor-ethyl)nitroso-3-ureido]-1-desoxy-beta-D-glucopyranose]", "values": [{"measurement": "toxicity on the bone marrow", "setting": "[1]", "value": "lower toxicity on the bone marrow"}]}
{"compound": "CC(=O)OC[C@H]1OC(OC(C)=O)[C@H](NC(=O)N(CCCl)N=O)[C@@H](OC(C)=O)[C@@H]1OC(C)=O", "note": "(some centres unmarked) [GCNU, 3-(2-chloro-1-ethyl-2'-desoxy-glucopyranosyl-14,3',4\",6'-tetracetate)nitrosourea]", "values": [{"measurement": "oncostatic action on L 1210 leucemia", "setting": "[2]", "value": "oncostatic action"}]}
{"compound": "CO[C@@H]1C[C@@H](NC(=O)N(CCCl)N=O)[C@H](O)[C@@H](C)O1", "note": "[IC 1183, Methyl 3-[3-(2-chloroethyl) 3-nitrosoureido] 2,3,6-tridesoxy α-D-arabinohexopyranoside]", "values": [{"measurement": "CYTOTOXIC INDEX", "setting": "[3]; 1 hour contact at dose giving 20% index, read after 48 hours", "value": 77, "unit": "%"}, {"measurement": "POTENTIAL \"IN VIVO\" ACTION", "setting": "[3]; active if cytotoxic index ≥40%", "value": "+ (if the cytotoxic index was equal to or greater than 40%, the product concerned would be active \"in vivo\" in the mouse)"}, {"measurement": "relative increase in survival (T/C×100)", "setting": "[4]", "value": ".infin. (The sign 00 indicates that 50% at least of the mice were cured)"}, {"measurement": "percentage of cured mice", "setting": "[4]; surviving more than 60 days", "value": 75, "unit": "%"}, {"measurement": "T/C (×100)", "setting": "[5]; 1.25 mg/kg i.p. days 1, 5, 9", "value": 118}, {"measurement": "T/C (×100)", "setting": "[5]; 2.50 mg/kg i.p. days 1, 5, 9", "value": 158}, {"measurement": "T/C (×100)", "setting": "[5]; 5 mg/kg i.p. days 1, 5, 9", "value": 170}, {"measurement": "T/C (×100)", "setting": "[5]; 10 mg/kg i.p. days 1, 5, 9", "value": 220}, {"measurement": "T/C (×100)", "setting": "[5]; 20 mg/kg i.p. days 1, 5, 9", "value": "00 (T/C=00: for definition: more than 50% of the treated animals were finally cured)"}, {"measurement": "T/C (×100)", "setting": "[5]; 40 mg/kg i.p. days 1, 5, 9", "value": "00 (T/C=00: for definition: more than 50% of the treated animals were finally cured)"}, {"measurement": "T/C (×100)", "setting": "[5]; 50 mg/kg i.p. days 1, 5, 9", "value": 100}, {"measurement": "T/C above 40 mg/kg", "setting": "[5]; after 40 mg/kg, rise in toxicity", "value": "sudden drop of the T/C"}, {"measurement": "curve of efficiency vs CCNU and Me CCNU", "setting": "[5]; [11]", "value": "very distinctly higher than those obtained by CCNU and Me CCNU"}, {"measurement": "curve of efficiency vs RFCNU and RPCNU", "setting": "[5]; [11]", "value": "as good as that obtained with RFCNU and RPCNU"}, {"measurement": "animals cured finally", "setting": "[5]; doses of 20 and 40 mg/kg", "value": "all the animals at doses of 20 and 40 mg/kg were cured finally"}, {"measurement": "Toxicity", "setting": "[5]; ≥60 mg/kg i.p. days 1, 5, 9", "value": "Toxicity"}, {"measurement": "Average survival ±2 σm", "setting": "[6]", "value": "13,5 ± 0,91"}, {"measurement": "Median survival", "setting": "[6]", "value": "14,0"}, {"measurement": "T/C × 100 (average survival)", "setting": "[6]", "value": 157}, {"measurement": "T/C × 100 (median survival)", "setting": "[6]", "value": 161}, {"measurement": "Average survival ±2 σm", "setting": "[7]", "value": "18,7 ± 1,30"}, {"measurement": "Median survival", "setting": "[7]", "value": 19}, {"measurement": "T/C × 100 (average survival)", "setting": "[7]", "value": 207}, {"measurement": "T/C × 100 (median survival)", "setting": "[7]", "value": 210}, {"measurement": "IC20", "setting": "[8]", "value": 50, "unit": "mg/L"}, {"measurement": "relative increase in survival (T/C×100)", "setting": "[9]", "value": 234}, {"measurement": "percentage of cured mice", "setting": "[9]; surviving more than 60 days", "value": 5, "unit": "%"}, {"measurement": "relative increase in survival (T/C×100)", "setting": "[10]", "value": ".infin. (The sign 00 indicates that 50% at least of the mice were cured)"}, {"measurement": "percentage of cured mice", "setting": "[10]; surviving more than 60 days", "value": 100, "unit": "%"}]}
{"compound": "CC1(C)O[C@@H]2[C@@H](COC(=O)c3ccc([N+](=O)[O-])cc3)OC(NC(=O)N(CCCl)N=O)[C@@H]2O1", "note": "(some centres unmarked) [RFCNU, 1-(2-chloro-ethyl)3-(ribofuranosyl-2',3'-isopropylidene-5-paranitro benzoate)-nitrosourea]", "values": [{"measurement": "oncostatic action on L 1210 leucemia", "setting": "[2]", "value": "oncostatic action"}]}
{"compound": "CC(=O)O[C@@H]1[C@H](OC(C)=O)COC(NC(=O)N(CCCl)N=O)[C@@H]1OC(C)=O", "note": "(some centres unmarked) [RPCNU, 1-(2-chloro-ethyl) 3-(ribopyranosyl-2',3',4'-triacetate)-nitrosourea]", "values": [{"measurement": "oncostatic action on L 1210 leucemia", "setting": "[2]", "value": "oncostatic action"}]}
{"compound": "CC(=O)O[C@H]1[C@H](OC(C)=O)COC(NC(=O)N(CCCl)N=O)[C@@H]1OC(C)=O", "note": "(some centres unmarked) [XPCNU, 1-(2-chloro-ethyl) 3-(xylopyranosyl 2',3',4'-triacetate)-nitrosourea]", "values": [{"measurement": "oncostatic action on L 1210 leucemia", "setting": "[2]", "value": "oncostatic action"}]}
